Test results as given in paper PMC5944969, “Characterization of a nontypeable Haemophilus influenzae thermonuclease” (PLoS ONE, 2018).

How the values were obtained:
NTHi Nuc [1] = target: T1, NTHi Nuc (Haemophilus influenzae, UniProt Q57519); assay: thermal unfolding by dynamic light scattering; assay type: binding; details: pH 7; excess pdTp; onset temperature with ligand, not a shift; ramp 1.0 °C/min
T1 construct: gene HI_1296; N-terminal 6xHis tag (pET151/D-TOPO) cleaved with TEV protease; E. coli BL21*(DE3)
T1 sequence (Q57519 21-178): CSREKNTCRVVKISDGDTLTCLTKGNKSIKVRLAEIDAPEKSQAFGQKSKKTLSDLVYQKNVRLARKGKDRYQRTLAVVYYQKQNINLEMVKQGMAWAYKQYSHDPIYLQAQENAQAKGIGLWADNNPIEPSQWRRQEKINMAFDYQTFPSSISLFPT
Description: thermal unfolding by dynamic light scattering on NTHi Nuc

NTHi Nuc [2] = target: T1, NTHi Nuc; assay: FRET nuclease assay, Cy3/BHQ2 single-stranded 30-mer DNA; assay type: biochemical; details: competitive (stated); pdTp 0.015 and 0.03 nM; enzyme 0.035 nM; 2 µM FRET substrate; 26 °C

For Cc1cn([C@H]2C[C@H](OP(=O)(O)O)[C@@H](COP(=O)(O)O)O2)c(=O)[nH]c1=O [thymidine 3,5-bisphosphate], the Tonset (NTHi Nuc [1]) was 48.1 ± 1.45 °C and the “FRET nuclease assay, Cy3/BHQ2 single-stranded 30-mer DNA” value (NTHi Nuc [2]) was “Half and equimolar concentrations of pdTp impacted initial rates of endonuclease activity”.
